The record followed here is patent publication US9446081B2, “Pharmaceutical composition for preventing and treating complications of diabetes containing a traditional oriental medicine extract or a fraction thereof as an active ingredient” (KOREA INSTITUTE OF ORIENTAL MEDICINE, priority 2011, dated 2016).

The structures appear in SMILES notation. Converted amounts (≈) assume the structure as drawn.

Series [1] addresses T1, aldose reductase from lens of SD rat (Rattus norvegicus, UniProt P07943).
T1 construct: natural aldose reductase from the eyeball of SD rat; from tissue; host or cells: Sprague-Dawley rat lens, homogenised; centrifuged and filtered supernatant
The series is described as follows: Inhibiting effect on aldose reductase (AR) activity. Format: biochemical, Sprague-Dawley rat. As for the experimental part:
Inhibiting effect of the extract of Homonoia riparia Lour. or the fractions (normal-hexane fraction, ethyl acetate fraction, normal-butanol fraction, and water fraction) thereof on aldose reductase activity was investigated in vitro. To obtain natural aldose reductase from the eyeball of SD rat (Sprague-Dawley rat, 250˜280 g) according to the method of Dufrane (1984), 135 mM Na, K-phosphate buffer (pH 7.0), and 10 mM 2-mercaptoethanol were mixed with the extracted lens, which was ground by using a homogenizer and a sonicater. After performing centrifugation at 14,000 rpm for 30 minutes, the supernatant was filtered by using 0.2 μm filter. All the procedures were performed at 4° C. Quantification was performed by Lowry method using BSA as a protein source of the enzyme. The mixture comprising 135 mM Na, K-phosphate buffer (pH 7.0), 100 mM lithium sulfate, 0.03 mM NADPH, 0.04 mM DL-glycealdehyde and 100 μg/ml enzyme mixture was dissolved in 0.1% DMSO, which was distributed to 50 μl of each sample diluted at different concentrations by 50 μl to make the total volume 1 ml, followed by culture for 10 minutes at 37° C. The experimental blank group was added with the mixture excluding 0.04 mM DL-glycealdehyde, and STD was treated with the sample including 135 mM Na, K-phosphate buffer (pH 7.0), 100 mM lithium sulfate, and 50 μl of NADP (0.2˜5 μM). The reaction was terminated by adding 0.3 ml of 0.5 N HCl. 1 ml of 6 M NaOH including 10 mM imidazole was added thereto, followed by reaction at 60° C. for 10 minutes. Then, the conversion of NADP to fluorescent product was measured. The examination was performed in triplicate. The effect was measured by using a spectrofluorophotometric detector (Bio-TEK, Synergy HT, USA) (Ex. 360 nm, Em. 460 nm) and presented as IC50. The extract of Homonoia riparia Lour. was prepared at the concentration of 1 μg/ml, 2.5 μg/ml, or 5 μg/ml. The normal-hexane fraction was prepared at the concentration of 2.5 μg/ml, 5 μg/ml, or 10 μg/ml. The ethyl acetate fraction was prepared at the concentration of 0.5 μg/ml, 1 μg/ml, or 2.5 μg/ml. The normal-butanol fraction was prepared at the concentration of 1 μg/ml, 2.5 μg/ml, or 5.0 μg/ml. The water fraction was prepared at the concentration of 2.5 μg/ml, 5 μg/ml, or 10 μg/ml. As the comparative control group, one of the excellent aldose reductase inhibitors, 3,3-tetramethyleneglutaric acid, was prepared at the concentration of 3.72 μg/ml, 4.66 μg/ml, or 5.59 μg/ml. Then, AR inhibiting effect of each sample was measured.

In series [2] the target is AGE-BSA cross-linked to collagen (Bos taurus, UniProt P02769). The series is described as follows: In vitro AGE cross-linking breaking effect (AGE-BSA on collagen-coated plate, ELISA). Format: biochemical. To be noted: 4 hours at 37° C.; for AGE-BSA (%) remaining cross-linked: OD of treated well/untreated well x100. On the procedure:
1.0 μg of AGE-BSA was distributed in a collagen-coated 96-well microtitre plate, followed by culture for 4 hours at 37° C. The plate was then washed with PBS containing 0.05% tween three times to eliminate non-conjugated AGE-BSA. Homonoia riparia Lour. The extract of Homonoia riparia Lour. or ALT-711 (4,5-dimethyl-3-(2-oxo-2-phenylethyl)-thiazolium chloride; Alteon Inc., Ramsey, N.J.) known as the AGEs cross-linking breaker was 2-fold diluted serially from the concentration of 1000 μg/ml to 1 μg/ml, which was added to each well (triplicate), followed by culture for 4 hours at 37° C. Upon completion of the culture, each well was washed with PBS containing 0.05% tween three times. To detect the AGE-BSA remaining as cross-linked to collagen, rabbit polyclonal anti-AGE-BSA antibody (MBL international, Woburn, Mass.) diluted at the ratio of 1:250 was distributed in each well, followed by culture for 1 hour at 37° C. One hour later, the plate was washed with PBS containing 0.05% tween three times, to which horseradish peroxidase-linked goat anti-rabbit antibody (Sigma, USA) was applied. Color development was induced by using 3,3′,5,5′-tetramethylbenzidine (TMB) as a substrate and OD450 was measured. Breaking % of AGE-BSA cross-linking was calculated by the following mathematical formula 2. AGE-BSA (%)=OD of sample treated well/OD of sample untreated well×100 [Mathematical Formula 2]

The subject of series [3] is advanced glycation endproducts production (bovine serum albumin + fructose/glucose). The series is described as follows: Inhibiting effect on advanced glycation endproducts production (BSA with fructose/glucose, fluorescence). Format: biochemical. To be noted: 14 days at 37° C. As for the experimental part: Inhibiting effect of the extract of Homonoia riparia Lour. obtained in <Example 1> and each fraction thereof (normal-hexane, ethyl acetate, normal-butanol, or water fraction) obtained in <Example 2> on the advanced glycation endproducts production was investigated in vitro. Bovine serum albumin (BSA, Sigma, USA) was used as a protein source. BSA was added to 50 mM phosphate buffer (pH 7.4) to make the concentration 10 mg/ml. 0.2 M fructose/0.2 M glucose mixed solution was used as a sugar source. The fructose/glucose mixed solution was added to the BSA solution prepared above. The ethanol extract of Homonoia riparia Lour. was prepared at the concentration of 2.5 μg/ml, 5 μg/ml, or 10 μg/ml. The normal-hexane fraction was prepared at the concentration of 10 μg/ml, 25 μg/ml, or 50 μg/ml. The ethyl acetate fraction was prepared at the concentration of 1.25 μg/ml, 2.5 μg/ml, or 5 μg/ml. The normal-butanol fraction was prepared at the concentration of 1.25 μg/ml, 2.5 μg/ml, or 5 μg/ml. The water fraction was prepared at the concentration of 2.5 μg/ml, 5 μg/ml, or 10 μg/ml. All the compounds were dissolved in dimethylsulfoxide (DMSO), to which 15% tween 80 was added. At that time, the final DMSO content was 0.2%. The prepared extract or the fractions thereof were added to the BSA/sugar mixed solution, followed by culture for 14 days at 37° C. At that time, 0.02% sodium azide and antimycotics were added as an anti-bacterial agent and an anti-fungal agent. The BSA/sugar mixed solution was cultured, which was used as the control. The extract or the fractions thereof were used as the blank. In the meantime, aminoguanidine was used as the positive control, which was the index for the effect comparison. Particularly, aminoguanidine was dissolved in distilled water, followed by culture by the same manner as described above at the concentration of 18.5 μg/ml, 37 μg/ml, or 55.5 μg/ml for 14 days. All the culture solutions were prepared 4 of each to minimize error. After 14 days of culture, the amount of the advanced glycation endproducts was measured. The advanced glycation endproducts were fluorescent brown and had physiochemical property suitable for cross-linking, and also had ligands which could be recognized by cell membrane receptors. The amount of the advanced glycation endproducts having the said properties was measured by a microplate reader (Excitation: 350 nm, Emission: 450 nm) to evaluate the inhibiting effect on the advanced glycation endproducts production (Vinson, J. A. et al., J. Nutr. Biochem., 7: 659-663, 1996). Inhibition rate of the advanced glycation endproducts production was calculated by the following mathematical formula 1. […]

AGE-BSA cross-linked to collagen, sequence (P02769 25-607): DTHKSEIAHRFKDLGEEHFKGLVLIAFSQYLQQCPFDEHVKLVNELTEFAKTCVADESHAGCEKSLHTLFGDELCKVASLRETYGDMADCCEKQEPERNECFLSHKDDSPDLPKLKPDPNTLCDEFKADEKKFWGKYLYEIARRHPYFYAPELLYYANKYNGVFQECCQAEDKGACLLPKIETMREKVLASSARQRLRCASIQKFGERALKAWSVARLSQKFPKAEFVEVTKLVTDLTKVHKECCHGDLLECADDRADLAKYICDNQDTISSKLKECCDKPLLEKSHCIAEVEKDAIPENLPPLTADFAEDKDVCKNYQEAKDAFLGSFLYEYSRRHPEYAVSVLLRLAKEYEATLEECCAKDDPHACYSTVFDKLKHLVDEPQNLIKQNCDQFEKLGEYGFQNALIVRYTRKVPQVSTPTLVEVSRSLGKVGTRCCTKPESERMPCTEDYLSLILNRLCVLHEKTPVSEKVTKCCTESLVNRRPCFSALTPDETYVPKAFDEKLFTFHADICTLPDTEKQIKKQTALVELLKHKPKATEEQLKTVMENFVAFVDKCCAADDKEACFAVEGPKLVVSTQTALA

Take `O=C(O)CC1(CC(=O)O)CCCC1` [3,3-tetramethyleneglutaric acid]: in series [1] (conc. 3.72 μg/ml), the inhibition at 3.72 µg/mL stood at 33 ± 4.36%. The inhibition at 4.66 µg/mL in series [1] (conc. 4.66 μg/ml) stood at 40.3 ± 1.36%. The inhibition at 5.59 µg/mL in series [1] (conc. 5.59 μg/ml) amounted to 51.6 ± 0.78%. Also, in series [1] (rat lens enzyme, read-out: Inhibiting effect (IC50) (μg/ml), aldose reductase (converted)), the IC50 was 29.1 µM.
As to `Cc1sc[n+](CC(=O)c2ccccc2)c1C.[Cl-]` [ALT-711, 4,5-dimethyl-3-(2-oxo-2-phenylethyl)-thiazolium chloride], the IC50 in series [2] (read-out: IC50 (μg/ml), AGE-BSA cross-linking breaking) was greater than 3730 µM. The “AGE-BSA (%) remaining cross-linked” value is given as 100.18 ± 18.4% in series [2] (conc. 10 μg/ml), 100.13 ± 4.42% in series [2] (conc. 50 μg/ml), 100.21 ± 5.46% in series [2] (conc. 100 μg/ml) and 51.77 ± 9.54% in series [2] (conc. 1000 μg/ml).
For `N=C(N)NN` [Aminoguanidine], in series [3], the “IC50 (μg/ml) 14th day, advanced glycation endproducts production” value was 52.96 µg/mL (≈ 715 µM). The “Inhibition (%) 14th day” value in series [3] (conc. 18.5 μg/ml) is 15.50 ± 1.79%; in series [3] (conc. 37 μg/ml) it was 33.56 ± 0.51%; in series [3] (conc. 55.5 μg/ml), 52.81 ± 2.81%.
